Results reported in paper PMC7774326, “Inhibition of Soybean 15-Lipoxygenase and Human 5-Lipoxygenase by Extracts of Leaves, Stem Bark, Phenols and Catechols Isolated From Lithraea caustica (Anacardiaceae)” (Frontiers in Pharmacology, 2020).
Where two headings read alike, the source gives them in different places.

Columns and labels:
[1] = tested on: 5-hLOX; design: method as in Sadik et al., 2003; details: known flavonoid inhibitors of 5-hLOX; ref Sadik et al., 2003; cited from earlier work
[2] = biological target: T1, 15 soybean lipoxygenase (15-sLOX) (Glycine max, UniProt P08170); assay: In vitro assay of 15 soybean lipoxygenase inhibition; format: biochemical
T1 construct: purchased Cayman Chemical 60712
T1 sequence (P08170 1-839): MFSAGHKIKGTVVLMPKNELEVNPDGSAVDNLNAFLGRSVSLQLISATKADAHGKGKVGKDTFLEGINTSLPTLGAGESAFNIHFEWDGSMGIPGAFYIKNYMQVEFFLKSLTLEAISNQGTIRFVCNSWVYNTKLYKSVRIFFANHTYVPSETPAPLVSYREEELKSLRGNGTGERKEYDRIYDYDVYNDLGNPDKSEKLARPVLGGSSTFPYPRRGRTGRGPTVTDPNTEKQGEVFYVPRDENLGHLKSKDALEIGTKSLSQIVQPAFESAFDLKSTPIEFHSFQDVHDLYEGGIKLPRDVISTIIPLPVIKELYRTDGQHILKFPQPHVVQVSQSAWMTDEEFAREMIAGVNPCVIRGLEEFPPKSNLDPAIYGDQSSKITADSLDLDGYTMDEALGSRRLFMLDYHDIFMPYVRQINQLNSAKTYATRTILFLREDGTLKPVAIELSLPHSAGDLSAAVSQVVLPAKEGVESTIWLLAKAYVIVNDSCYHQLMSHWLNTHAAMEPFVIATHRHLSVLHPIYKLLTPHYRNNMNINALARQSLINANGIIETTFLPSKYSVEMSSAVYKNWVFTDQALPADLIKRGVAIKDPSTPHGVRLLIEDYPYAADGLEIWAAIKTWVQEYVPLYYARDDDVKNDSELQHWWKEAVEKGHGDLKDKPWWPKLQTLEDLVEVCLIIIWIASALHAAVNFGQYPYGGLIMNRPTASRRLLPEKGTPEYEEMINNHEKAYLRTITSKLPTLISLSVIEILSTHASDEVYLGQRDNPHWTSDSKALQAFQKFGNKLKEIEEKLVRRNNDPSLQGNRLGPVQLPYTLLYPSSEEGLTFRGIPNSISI
Procedure: Assays of inhibition of 15-sLOX were performed using a previous published methodology ([Tirapegui et al., 2017]), with minor modifications. In shortly, the activity of 15-sLOX (Cayman Chemical Item No. 60712) was determined following the formation of reaction products at 234 nm (ε = 25,000 M^−1cm^−1) with a Perkin-Elmer Lambda 25 UV/Vis (LabMakelaar Benelux B.V. Zuid-Holland, Nederland). All reactions were performed at a final volume of 2 ml and stirred using a magnetic bar at room temperature. The reaction medium used contained 0.1 M HEPES buffer (pH 7.4), Triton X-100 0.01%, and the linoleic acid substrate at a 10 μM concentration determine preliminary percent inhibition (% I). The concentration was determined quantitatively by allowing the enzymatic reaction to go to completion. The reaction was carried out by adding the inhibitor (sample) in methanol to the cuvette with the substrate buffer, and finally the enzyme was added. Nordihydroguaiaretic acid was used as positive control. Assays were performed in duplicate on two different days. IC50 values were determined by measuring enzyme activity at different concentrations of inhibitor dissolved in methanol; in the range of the initial velocity of the enzyme reaction. Finally, the inhibition% vs. the inhibitor concentration was plotted, giving a hyperbolic saturation curve using GraphPad Prism Demo.

[3] = biological target: T2, 5 human lipoxygenase (5-hLOX) (Homo sapiens, UniProt P09917); assay: In vitro assay of 5 human lipoxygenase inhibition; format: biochemical
T2 construct: purchased Cayman Chemical 60402
T2 sequence (P09917 1-674): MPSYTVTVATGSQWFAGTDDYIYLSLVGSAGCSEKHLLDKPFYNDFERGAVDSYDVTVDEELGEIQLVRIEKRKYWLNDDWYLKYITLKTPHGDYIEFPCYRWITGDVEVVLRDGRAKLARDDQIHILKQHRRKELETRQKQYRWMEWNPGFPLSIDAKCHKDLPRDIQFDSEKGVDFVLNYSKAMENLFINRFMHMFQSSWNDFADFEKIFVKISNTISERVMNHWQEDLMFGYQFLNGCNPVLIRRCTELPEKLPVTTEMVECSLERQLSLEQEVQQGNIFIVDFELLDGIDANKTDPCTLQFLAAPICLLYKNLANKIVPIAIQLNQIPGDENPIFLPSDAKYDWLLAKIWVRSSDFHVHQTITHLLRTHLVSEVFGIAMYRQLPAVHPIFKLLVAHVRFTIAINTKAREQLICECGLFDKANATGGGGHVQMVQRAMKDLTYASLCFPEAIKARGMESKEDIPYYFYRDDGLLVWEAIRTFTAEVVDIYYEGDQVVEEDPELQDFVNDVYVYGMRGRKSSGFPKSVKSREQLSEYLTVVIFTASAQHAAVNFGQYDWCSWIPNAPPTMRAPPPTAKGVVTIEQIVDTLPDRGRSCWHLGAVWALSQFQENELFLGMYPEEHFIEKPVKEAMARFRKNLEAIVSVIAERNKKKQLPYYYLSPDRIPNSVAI
Procedure: Assays of inhibition of 5-hLOX were performed using a previous published methodology ([Vásquez-Martínez et al., 2019]), with minor modifications. In shortly, the enzyme (Cayman Chemical Item No. 60402) was diluted (1:500) in the assay buffer (HEPES 50 mM, EDTA 2 mM, ATP 10 μM and CaCl2 10 μM at pH 7.5) and mixed with 10 μM of 2′,7′-dichlorofluorescin diacetate (H2DCFDA) dye. The reaction mixture was incubated for 15 min in the assay plate. Subsequently, 33.3 μl of assay buffer was added per well, and 3.3 μl of inhibitor was added to a final concentration of 10 μM; this reaction mixture was incubated for 30 min. The reaction was started by addition of AA (3.3 μM) and was incubated for 1 h and fluorescence was read in a multimode detector Synergy™ HT Multi-Mode Microplate Reader (Biotek, Winooski, VT, United States) at 480 nm excitation/ 520 nm emission after a reaction that had proceeded for 1 h at room temperature. The IC50 values were obtained using the nonlinear curve- fitting program of Graph Pad Prism Demo.

[4] = class symbol NA, read-out: IC50 5-hLOX Inhibition

| SMILES | IC50 [1] | IC50 [2] | IC50 [3] | IC50 [3, 4] |
| --- | --- | --- | --- | --- |
| Oc1cc(O)c2c(c1)O[C@H](c1ccc(O)c(O)c1)[C@H](O)C2 [(−)-epicatechin] | 22 µM | – | – | – |
| O=C(O[C@@H]1Cc2c(O)cc(O)cc2O[C@@H]1c1cc(O)c(O)c(O)c1)c1cc(O)c(O)c(O)c1 [(−)-epigallocatechin gallate] | 3.1 µM | – | – | – |
| CCCC/C=C\CCCCCCCCCc1cccc(O)c1O [Compound 2, 3-[(10Z)-pentadec-10′-en-1-yl]-catechol] | – | 54.8 µM | 2.09 µM | – |
| CCCCCCCCCCCCCCCc1cccc(O)c1O [Compound 3, 3-n-pentadecylcatechol] | – | 55.3 µM | 2.74 µM | – |
| O=c1c(O)c(-c2ccc(O)c(O)c2)oc2cc(O)cc(O)c12 [quercetin] | 0.6 µM | – | – | – |
| CCCCC=CCCCCCCCCCc1cccc(OC(C)=O)c1OC(C)=O [Compound 4] | – | > 124 µM | – | > 124 µM |
| CCCCCCCCCCCCCCCc1cccc(OC(C)=O)c1OC(C)=O [Compound 5] | – | > 124 µM | – | > 124 µM |
